Target: T1, human cloned 5-HT6 receptors (Homo sapiens, UniProt P50406)
T1 construct: expressed in transfected cells; host or cells: Hela cells
Assay: 5-HT6 binding affinity, [3H]-LSD displacement in membranes of Hela cells
Details: not given

T1 sequence (P50406 whole entry): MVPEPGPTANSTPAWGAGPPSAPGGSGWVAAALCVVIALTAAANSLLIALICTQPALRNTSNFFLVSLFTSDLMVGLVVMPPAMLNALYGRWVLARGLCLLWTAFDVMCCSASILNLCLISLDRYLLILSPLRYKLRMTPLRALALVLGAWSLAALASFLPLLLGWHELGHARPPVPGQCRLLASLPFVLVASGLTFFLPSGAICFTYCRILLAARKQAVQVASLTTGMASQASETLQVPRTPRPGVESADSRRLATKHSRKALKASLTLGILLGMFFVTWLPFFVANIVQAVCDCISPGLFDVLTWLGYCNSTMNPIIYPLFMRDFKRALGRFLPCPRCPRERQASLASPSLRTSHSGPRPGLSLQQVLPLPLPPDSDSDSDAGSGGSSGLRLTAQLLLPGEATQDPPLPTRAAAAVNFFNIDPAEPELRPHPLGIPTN

| Ki [nM] | Compound |
| --- | --- |
| 9 | CCC(=NNC(=N)N)c1cn(S(=O)(=O)c2ccc(N)cc2)c2ccc(Cl)cc12 [Example 121, 2-(1-{1-[(4-aminophenyl)sulfonyl]-5-chloro-1H-indol-3-yl}propylidene)hydrazinecarboximidamide] |
| 15 | CC(=NNC(=N)N)c1cn(S(=O)(=O)c2cccc3nonc23)c2ccccc12 [Example 25] |
| 11 | N=C(N)NN=C(Cc1ccccc1)c1cn(S(=O)(=O)c2ccccc2)c2ccccc12 [Example 6, 2-{2-phenyl-1-[1-(phenylsulfonyl)-1H-indol-3-yl]ethylidene}hydrazinecarboximidamide] |

Same assay, conditions: test compound dose 10 nM; [3H]-LSD 3.0 nM

| inhibition at 0.01 µM [%] | Compound |
| --- | --- |
| 35.1 | N=C(N)NN=C(c1cn(S(=O)(=O)c2ccc3ccccc3c2)c2ccccc12)C1CC1 [Example 66, 2-{cyclopropyl[1-(2-naphthylsulfonyl)-1H-indol-3-yl]methylidene}hydrazinecarboximidamide] |

Same assay, conditions: test compound dose 100 nM; [3H]-LSD 3.0 nM

| Compound | inhibition at 0.1 µM [%] |
| --- | --- |
| COc1ccc(S(=O)(=O)n2cc(C(=NNC(=N)N)C3CC3)c3cc(Cl)ccc32)cc1OC [Example 89, 2-[{5-chloro-1-[(3,4-dimethoxyphenyl)sulfonyl]-1H-indol-3-yl}(cyclopropyl)-methylidene]hydrazinecarboximidamide] | 71.9 |
| CC(=NNC(=N)N)c1cn(S(=O)(=O)c2cccc3nonc23)c2ccccc12 [Example 25] | 79.6 |

Further lines, results first:

| inhibition at 0.1 µM [%] | Compound |
| --- | --- |
| 63.5 | CC(=NNC(=N)N)c1cn(S(=O)(=O)c2cccc3ccccc23)c2ccccc12 [Example 50, 2-{1-[1-(1-naphthylsulfonyl)-1H-indol-3-yl]ethylidene}hydrazinecarboximidamide] |
| 55 | CC(=NNC(=N)N)c1cn(S(=O)(=O)c2cc(Cl)sc2Cl)c2ccccc12 [Example 41, 2-(1-{1-[(2,5-dichlorothien-3-yl)sulfonyl]-1H-indol-3-yl}ethylidene)hydrazinecarboximidamide] |

Same assay, conditions: test compound dose 1000 nM; [3H]-LSD 3.0 nM; read-out: % Inhibition

| Compound | inhibition at 1 µM [%] |
| --- | --- |
| CC(=NNC(=N)N)c1c(-c2ccc(Cl)cc2)n(S(C)(=O)=O)c2ccccc12 [Example 90, 2-{1-[2-(4-chlorophenyl)-1-(methylsulfonyl)-1H-indol-3-yl]ethylidene}hydrazinecarboximidamide] | 63.5 |
| COc1ccc(S(=O)(=O)n2cc(C(C)=NNC(=N)N)c3cc(Cl)ccc32)cc1 [Example 78, 2-(1-{5-chloro-1-[(4-methoxyphenyl)sulfonyl]-1H-indol-3-yl}ethylidene)hydrazinecarboximidamide] | 85.5 |
| CC(=NNC(=N)N)c1c(-c2ccc(Cl)cc2)n(S(=O)(=O)c2ccccc2)c2ccccc12 [Example 95, 2-{1-[2-(4-chlorophenyl)-1-(phenylsulfonyl)-1H-indol-3-yl]ethylidene}hydrazinecarboximidamide] | 89.6 |
| CCCCC(=NNC(=N)N)c1cn(S(=O)(=O)c2ccc(OC)cc2)c2ccc(Cl)cc12 [Example 79, 2-(1-{5-chloro-1-[(4-methoxyphenyl)sulfonyl]-1H-indol-3-yl}pentylidene)hydrazinecarboximidamide] | 61 |
| N=C(N)NN=C(Cc1ccccc1)c1cn(S(=O)(=O)c2ccccc2)c2ccccc12 [Example 6, 2-{2-phenyl-1-[1-(phenylsulfonyl)-1H-indol-3-yl]ethylidene}hydrazinecarboximidamide] | 97.8 |
| CCCCC(=NNC(=N)N)c1cn(S(=O)(=O)CCCC)c2ccc(Cl)cc12 [Example 76, 2-{1-[1-(butylsulfonyl)-5-chloro-1H-indol-3-yl]pentylidene}hydrazinecarboximidamide] | 74.5 |

Now from value to compound:

| inhibition at 1 µM [%] | Compound |
| --- | --- |
| 77.4 | CCCCC(=NNC(=N)N)c1cn(S(C)(=O)=O)c2cc(F)ccc12 [Example 101, 2-{1-[6-fluoro-1-(methylsulfonyl)-1H-indol-3-yl]pentylidene}hydrazinecarboximidamide] |
| 68.3 | CCCCC(=NNC(=N)N)c1cn(S(=O)(=O)c2ccc(OC)cc2)c2ccccc12 [Example 62, 2-(1-{1-[(4-methoxyphenyl)sulfonyl]-1H-indol-3-yl}pentylidene)hydrazinecarboximidamide] |
| 56 | Cc1ccc(S(=O)(=O)n2cc(C=NNC3=NCCCN3)c3ccccc32)cc1 [Example 1, 1-[(4-methylphenyl)sulfonyl]-1H-indole-3-carboxaldehyde 1,4,5,6-tetrahydropyrimidin-2-ylhydrazone] |
